Results: patent US9708244B2, “Coloring material and method for producing the same” (DAI NIPPON PRINTING CO., LTD., priority 2012, dated 2017)

Legend:
Assay type in all cases: physicochemical
[1] = Evaluation of thermal decomposition temperature (TG-DTA); conditions: heating rate 5° C./min to 800° C., extrapolated temperature of TG curve peak
Method: As a reference, alumina was put in a quarts pan. Using horizontal differential thermogravimetric-differential thermal analyzer (TG-DTA) TG8120 (manufactured by Rigaku Corporation), they were measured at a heating rate of 5° C./min to 800° C. The extrapolated temperature of the peak of the thus-obtained TG curve was used as a decomposition point, and the temperature at the decomposition point was used as a thermal decomposition temperature. The thermal decomposition temperature can be used as an indicator of heat resistance.

[2] = Evaluation of weight reduction rate (TG-DTA, held at 230° C.); conditions: heated to 230° C. at 20° C./min, kept 60 minutes
Method: As a reference, alumina was put in a quarts pan. Using differential thermogravimetric analyzer (TG-DTA) TG8120 (manufactured by Rigaku Corporation), they were heated to 230° C. at a heating rate of 20° C./min. From the time when they reached 230° C., they were kept at the same temperature for 60 minutes and then measured for the weight reduction rate. The weight reduction rate is calculated by the following formula and can be used as an indicator of heat resistance. Weight reduction rate=(“weight before heating”−“weight after heating”)/“weight before heating”×100(%) <Evaluation of Dyeing Property> (1) Fabric Dyeing

[3] = Evaluation of color change in color materials (absorption spectrum in methanol); conditions: 10 mg in 100 mL methanol, diluted 20-fold, 1 cm cell, FIG. 1
Method: First, 10 mg of each of the color materials A and C obtained in Examples 1 and 3 was dissolved in 100 mL of methanol and diluted 20-fold, thereby obtaining a measurement solution. The absorption spectrum of the solution was measured by using a 1 cm quarts cell in spectrophotometer U-3500 manufactured by Hitachi, Ltd. Next, 10 mg of BB7 (monomer) was dissolved in 100 mL of methanol and diluted 20-fold, thereby obtaining a measurement solution as a control product. The absorption spectrum of the solution was measured by the same method as above.

Row | Thermal decomposition temperature [1] | Weight reduction rate (230° C. for 1 hr) [2] | Color change versus BB7 (absorption spectrum peak form) [3] | SMILES
1 | 247 °C | −28.9% | almost no change in color | CCN(CC)c1ccc(C(=C2C=CC(=[N+](CC)CC)C=C2)c2ccc(NCc3ccc(CNc4ccc(C(=C5C=CC(=[N+](CC)CC)C=C5)c5ccc(N(CC)CC)cc5)c5ccccc45)cc3)c3ccccc23)cc1.[Cl-].[Cl-] [Color material A]
2 | 255 °C | −29.1% | – | CCN(CC)c1ccc(C(=C2C=CC(=[N+](CC)CC)C=C2)c2ccc(NCc3ccc(CNc4ccc(C(=C5C=CC(=[N+](CC)CC)C=C5)c5ccc(N(CC)CC)cc5)c5ccccc45)cc3)c3ccccc23)cc1 [Color material B]
3 | 218 °C | −40.2% | – | CCNc1ccc(C(=C2C=CC(=[N+](CC)CC)C=C2)c2ccc(N(CC)CC)cc2)c2ccccc12.[Cl-] [Color material D, Basic Blue 7 (CI-42595)]
4 | 245 °C | −38.3% | – | CCNc1ccc(C(=C2C=CC(=[N+](CC)CC)C=C2)c2ccc(N(CC)CC)cc2)c2ccccc12.Cc1ccc(S(=O)(=O)[O-])cc1 [Color material E]
5 | 236 °C | −33.8% | – | CCNc1ccc(C(=C2C=CC(=[N+](CC)CC)C=C2)c2ccc(N(CC)CC)cc2)c2ccccc12 [Color material F]
